Experimental data taken from ChEMBL document CHEMBL5329165, “Design, synthesis and biological evaluation of phenanthridine amide and 1,2,3-triazole analogues against Mycobacterium tuberculosis” (RSC Med Chem, 2023).
In brackets after ≈: the same amount, converted by molar mass.

System: Mycobacterium tuberculosis
Experiment: Antimycobacterial activity against Mycobacterium tuberculosis H37Ra transformed with pSMT1 luciferase reporter plasmid incubated for 7 days by luminometric assay
Type: functional
Details: 168 h, time 7 day

Structure (SMILES): O=C(Nc1ccc(N2CCN(C(=O)c3cnccn3)CC2)nc1)c1ccccc1
- MIC: 1.46 µM (≈ 0.567 µg/mL)
